System: MV4:11 human cancer cell lines
Experiment: Cellular viability / anti-proliferative activity, CellTiter-Glo, 5 day protocol
Assay type: cell-based
Settings: Homo sapiens, MV4-11, 120 h, MV4:11 cells; 5 day incubation; CellTiter-Glo; mean of minimum two replicates; read-out: GI50 on cellular proliferation of MV4:11 human cancer cell lines
Description: Cellular Viability of Human Tumor Cell Lines
Anti proliferative activity using MLL-harboring cell lines. […] Viability assays are performed by dispensing 200 cells at 7200 cells/mL into each well of an opaque 384-well plate and adding compounds at the indicated concentrations in a final volume of 32 μL and a final concentration of DMSO of 0.3% for all samples. A certain range of compound concentrations is made through a series of 2-fold dilutions starting 30 μM at the highest, total 22 dilutions. After a set incubation period, 5 day protocol, the viability of cells in each well is assessed using the CellTiter-Glo assay (Promega), read on a 96 Microplane Luminometer (Cytation 3, BioTek). Serial dilutions of each cell type are performed in all assays to generate standard curves and the final densities of cells are determined within the dynamic range of the instrument. GI50 values are calculated based on XLfit software (IDBS, Guildford, UK) with Sigmoidal Dose-Response Model. Each compound is tested in minimum of two replicates. Data are expressed as mean.

Row | SMILES | GI50
1 | Cc1cc(CN2CCc3c(cc(Cn4ccn(C)c4=N)cc3-c3ccc(F)cc3C)C2=O)ccc1F [Example 31, 5-(4-Fluoro-2-methylphenyl)-2-(4-fluoro-3-methylbenzyl)-7-((2-imino-3-methyl-2,3-dihydro-1H-imidazol-1-yl)methyl)-3,4-dihydroisoquinolin-1(2H)-one] | < 0.05 µM
2 | Cc1cc([C@H](C2CC2)N2CCc3c(cc(Cn4ccn(C)c4=N)cc3-c3ccc(F)cc3C)C2=O)ccc1F [Example 32, (S)-2-(Cyclopropyl(4-fluoro-3-methylphenyl)methyl)-5-(4-fluoro-2-methylphenyl)-7-((2-imino-3-methyl-2,3-dihydro-1H-imidazol-1-yl)methyl)-3,4-dihydroisoquinolin-1(2H)-one] | 0.064 µM
3 | Cc1ccnc([C@@H](C2CC2)N2CCc3c(cc(Cn4ccn(C)c4=N)cc3-c3ccc(F)cc3C)C2=O)c1 [Example 33, (R)-2-(Cyclopropyl(4-methylpyridin-2-yl)methyl)-5-(4-fluoro-2-methylphenyl)-7-((2-imino-3-methyl-2,3-dihydro-1H-imidazol-1-yl)methyl)-3,4-dihydroisoquinolin-1(2H)-one] | 0.553 µM
4 | Cc1cc([C@H](C2CC2)N2CCc3c(cc(Cn4ccn(C)c4=N)cc3-c3cccnc3C(F)(F)F)C2=O)ccc1F [Example 34, (S)-2-(Cyclopropyl(4-fluoro-3-methylphenyl)methyl)-7-((2-imino-3-methyl-2,3-dihydro-1H-imidazol-1-yl)methyl)-5-(2-(trifluoromethyl)pyridin-3-yl)-3,4-dihydroisoquinolin-1(2H)-one] | 0.215 µM
5 | COc1cc(CN2CCc3c(cc(Cn4ccn(C)c4=N)cc3-c3cccnc3C(F)(F)F)C2=O)cc(OC)c1 [Example 35, 2-(3,5-Dimethoxybenzyl)-7-((2-imino-3-methyl-2,3-dihydro-1H-imidazol-1-yl)methyl)-5-(2-(trifluoromethyl)pyridin-3-yl)-3,4-dihydroisoquinolin-1(2H)-one] | 0.143 µM
6 | Cc1ccnc([C@H](C2CC2)N2CCc3c(cc(Cn4ccn(C)c4=N)cc3-c3cccnc3C(F)(F)F)C2=O)c1 [Example 36, (S)-2-(Cyclopropyl(4-methylpyridin-2-yl)methyl)-7-((2-imino-3-methyl-2,3-dihydro-1H-imidazol-1-yl)methyl)-5-(2-(trifluoromethyl)pyridin-3-yl)-3,4-dihydroisoquinolin-1(2H)-one] | 0.201 µM
7 | Cc1ccnc([C@H](C2CC2)N2CCc3c(cc(Cn4ccn(C)c4=N)cc3-c3ccc(F)cc3C)C2=O)c1 [Example 37, (S)-2-(Cyclopropyl(4-methylpyridin-2-yl)methyl)-5-(4-fluoro-2-methylphenyl)-7-((2-imino-3-methyl-2,3-dihydro-1H-imidazol-1-yl)methyl)-3,4-dihydroisoquinolin-1(2H)-one] | < 0.05 µM
8 | COc1cc(CN2CCc3c(cc(Cn4ccn(C5CC5)c4=N)cc3-c3ccc(F)cc3C)C2=O)cc(OC)c1 [Example 38, 7-((3-Cyclopropyl-2-imino-2,3-dihydro-1H-imidazol-1-yl)methyl)-2-(3,5-dimethoxybenzyl)-5-(4-fluoro-2-methylphenyl)-3,4-dihydroisoquinolin-1(2H)-one] | 0.095 µM

Results, then the compound that gave them:

Row | GI50 | SMILES
9 | < 0.05 µM | COc1cc(CN2CCc3c(cc(Cn4ccn(C)c4=N)cc3-c3cn(C)nc3C(F)(F)F)C2=O)cc(OC)c1 [Example 39, 2-(3,5-Dimethoxybenzyl)-7-((2-imino-3-methyl-2,3-dihydro-1H-imidazol-1-yl)methyl)-5-(1-methyl-3-(trifluoromethyl)-1H-pyrazol-4-yl)-3,4-dihydroisoquinolin-1(2H)-one]
10 | < 0.05 µM | Cc1cc([C@H](C)N2CCc3c(cc(Cn4ccn(C)c4=N)cc3-c3ccc(F)cc3C)C2=O)ccc1F [Example 40, (S)-5-(4-Fluoro-2-methylphenyl)-2-(1-(4-fluoro-3-methylphenyl)ethyl)-7-((2-imino-3-methyl-2,3-dihydro-1H-imidazol-1-yl)methyl)-3,4-dihydroisoquinolin-1(2H)-one]
11 | 0.064 µM | COc1ccnc(CN2CCc3c(cc(Cn4ccn(C)c4=N)cc3-c3cn(C)nc3C(F)(F)F)C2=O)c1 [Example 41, 7-((2-Imino-3-methyl-2,3-dihydro-1H-imidazol-1-yl)methyl)-2-((4-methoxypyridin-2-yl)methyl)-5-(1-methyl-3-(trifluoromethyl)-1H-pyrazol-4-yl)-3,4-dihydroisoquinolin-1(2H)-one]
12 | 0.291 µM | COc1ccnc(CN2CCc3c(cc(Cn4ccn(C)c4=N)cc3-c3cn(C)nc3C)C2=O)c1 [Example 42, 5-(1,3-Dimethyl-1H-pyrazol-4-yl)-7-((2-imino-3-methyl-2,3-dihydro-1H-imidazol-1-yl)methyl)-2-((4-methoxypyridin-2-yl)methyl)-3,4-dihydroisoquinolin-1(2H)-one]
13 | < 0.05 µM | COc1ccnc(CN2CCc3c(cc(CN4CCN(C)C4=N)cc3-c3cn(C)nc3C(F)(F)F)C2=O)c1 [Example 43, 7-((2-Imino-3-methylimidazolidin-1-yl)methyl)-2-((4-methoxypyridin-2-yl)methyl)-5-(1-methyl-3-(trifluoromethyl)-1H-pyrazol-4-yl)-3,4-dihydroisoquinolin-1(2H)-one]
14 | < 0.05 µM | COc1ccnc(CN2CCc3c(cc(CN4CCN(C5CC5)C4=N)cc3-c3cn(C)nc3C(F)(F)F)C2=O)c1 [Example 44, 7-((3-Cyclopropyl-2-iminoimidazolidin-1-yl)methyl)-2-((4-methoxypyridin-2-yl)methyl)-5-(1-methyl-3-(trifluoromethyl)-1H-pyrazol-4-yl)-3,4-dihydroisoquinolin-1(2H)-one]
15 | 0.113 µM | COc1ccnc(CN2CCc3c(cc(Cn4ccn(C5CC5)c4=N)cc3-c3cn(C)nc3C(F)(F)F)C2=O)c1 [Example 45, 7-((3-Cyclopropyl-2-imino-2,3-dihydro-1H-imidazol-1-yl)methyl)-2-((4-methoxypyridin-2-yl)methyl)-5-(1-methyl-3-(trifluoromethyl)-1H-pyrazol-4-yl)-3,4-dihydroisoquinolin-1(2H)-one]
16 | 0.449 µM | COc1ccnc(CN2CCc3c(cc(CN4CCN(C5CC5)C4=N)cc3-c3cn(C)nc3C)C2=O)c1 [Example 46, 7-((3-Cyclopropyl-2-iminoimidazolidin-1-yl)methyl)-5-(1,3-dimethyl-1H-pyrazol-4-yl)-2-((4-methoxypyridin-2-yl)methyl)-3,4-dihydroisoquinolin-1(2H)-one]
17 | 0.165 µM | COc1ccnc(CN2CCc3c(cc(CN4CCN(C)C4=N)cc3-c3cn(C)nc3C)C2=O)c1 [Example 47, 5-(1,3-Dimethyl-1H-pyrazol-4-yl)-7-((2-imino-3-methylimidazolidin-1-yl)methyl)-2-((4-methoxypyridin-2-yl)methyl)-3,4-dihydroisoquinolin-1(2H)-one]
18 | 0.423 µM | COc1ccnc(CN2CCc3c(cc(Cn4ccn(C5CC5)c4=N)cc3-c3cn(C)nc3C)C2=O)c1 [Example 48]
19 | 0.906 µM | CCn1cc(-c2cc(Cn3ccn(C)c3=N)cc3c2CCN(Cc2cc(OC)ccn2)C3=O)cn1 [Example 49, 5-(1-Ethyl-1H-pyrazol-4-yl)-7-((2-imino-3-methyl-2,3-dihydro-1H-imidazol-1-yl)methyl)-2-((4-methoxypyridin-2-yl)methyl)-3,4-dihydroisoquinolin-1(2H)-one]

From patent publication US11999716B2, “WDR5 inhibitors and modulators” (priority 2018, dated 2024)
